Experimental data taken from ChEMBL document CHEMBL1132946 (J Med Chem, 2000).

Experiments:
[1] = organism: Bos taurus; test: Selectivity, ratio of affinity towards adenosine A2A to A1
[2] = target: Adenosine receptor A2a (Bos taurus); test: biochemical
[3] = target: T1, Adenosine receptor A3 (Rattus norvegicus, UniProt P28647); test: Ability to displace the specific binding of [3H](R)-PIA to adenosine A3 receptor from rat testis membranes; format: cell membranes, Membrane
T1 sequence (P28647 whole entry): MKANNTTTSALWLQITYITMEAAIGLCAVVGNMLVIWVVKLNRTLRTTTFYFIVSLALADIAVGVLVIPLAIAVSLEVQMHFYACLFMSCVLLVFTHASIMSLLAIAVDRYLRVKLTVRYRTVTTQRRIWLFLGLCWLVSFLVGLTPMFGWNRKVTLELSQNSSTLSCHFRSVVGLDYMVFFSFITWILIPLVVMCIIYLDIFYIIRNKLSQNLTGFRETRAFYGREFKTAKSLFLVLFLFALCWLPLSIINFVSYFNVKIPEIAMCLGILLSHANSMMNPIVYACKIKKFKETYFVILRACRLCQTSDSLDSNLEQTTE

[4] = Selectivity, ratio of affinity towards adenosine A3 to A1
[5] = target: T2, Adenosine receptor A1 (Bos taurus, UniProt P28190); test: biochemical
T2 sequence (P28190 whole entry): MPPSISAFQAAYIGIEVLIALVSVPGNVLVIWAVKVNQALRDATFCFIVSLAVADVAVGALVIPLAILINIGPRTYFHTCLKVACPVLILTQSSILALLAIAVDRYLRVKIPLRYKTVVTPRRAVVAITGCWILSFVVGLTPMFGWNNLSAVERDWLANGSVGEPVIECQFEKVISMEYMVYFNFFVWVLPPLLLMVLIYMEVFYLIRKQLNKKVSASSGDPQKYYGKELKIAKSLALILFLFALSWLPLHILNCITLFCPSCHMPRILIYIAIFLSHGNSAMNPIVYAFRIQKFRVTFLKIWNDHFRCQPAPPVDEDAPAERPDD

[6] = organism: Bos taurus; test: Selectivity, ratio of affinity towards adenosine A3 to A2A
[7] = target: T2, Adenosine receptor A1; test: Displacement of [3H]CHA from A1 Adenosine receptor of Bovine brain cortical membranes

Structure (SMILES) | Selectivity [1] | Ki [2] | Ki [3] | Selectivity [4] | Ki [5] | Selectivity [6] | Ki [7]
CCOc1ccc2c(O)cc(-c3ccccc3)nc2n1 | > 1920 | > 10 µM | > 10 µM | > 1920 | 0.0052 µM |  | 
COc1cc(-c2ccccc2)nc2c1ccc(=O)n2C |  |  | > 10 µM |  | 1.3 µM |  | 
Oc1cc(-c2ccccc2)nc2nc(Br)ccc12 |  |  | 2.1 µM |  | 0.0007 µM |  | 
Oc1cc(-c2ccccc2)nc2nc(F)ccc12 | 41 | 0.17 µM | > 10 µM | > 2440 | 0.0041 µM | > 59 | 
Cc1ccc2c(O)cc(-c3ccc([N+](=O)[O-])cc3)nc2n1 |  |  | > 10 µM |  | 0.0099 µM |  | 
O=c1ccc2c(O)cc(-c3ccccc3)nc2[nH]1 |  |  | > 10 µM |  | > 10 µM |  | 
Cc1ccc2c(Oc3ccccc3)cc(-c3ccccc3)nc2n1 |  |  | > 10 µM |  |  |  | 
Cn1c(=O)ccc2c(O)cc(-c3ccccc3)nc21 |  |  | > 10 µM |  | 4.9 µM |  | 
OC[C@H]1O[C@@H](n2cnc3c(NC4CCCCC4)ncnc32)[C@H](O)[C@@H]1O |  |  | 0.025 µM |  | 0.0013 µM |  | 
Oc1cc(-c2ccccc2)nc2ncccc12 |  |  | 3 µM |  | 0.016 µM |  | 
Cc1ccc2c(O)cc(-c3ccc(F)cc3)nc2n1 |  |  | 6.1 µM |  | 0.0053 µM |  | 
Cc1ccc2c(NC3CCCCC3)cc(-c3ccccc3)nc2n1 |  |  | > 10 µM |  | 0.028 µM |  | 
Cc1ccc2c(O)cc(-c3ccccc3)nc2n1 | 87 | 0.46 µM | 8.8 µM | 1660 | 0.0053 µM | 19 | 
CCCn1c(=O)c2[nH]c(-c3ccc(OCC(=O)NCCN)cc3)nc2n(CCC)c1=O [XANTHINE AMINE CONGENER] |  |  | 0.418 µM |  | 0.0013 µM |  | 
Cc1ccc2c(N)cc(-c3ccccc3)nc2n1 |  |  | > 10 µM |  | 0.017 µM |  | 
Cc1ccc2c(N3CCNCC3)cc(-c3ccccc3)nc2n1 |  |  | > 10 µM |  | 8.7 µM |  | 
CCn1c(-c2ccccc2)cc(=O)c2ccc(C)nc21 |  |  | > 10 µM |  | 0.45 µM |  | 
Cc1ccc2c(S)cc(-c3ccccc3)nc2n1 |  |  | > 10 µM |  | 0.08 µM |  | 
Oc1cc(-c2ccccc2)nc2nc(Cl)ccc12 |  |  | 2.1 µM |  | 0.00015 µM |  | 
Cc1ccc2c(Cl)cc(-c3ccccc3)nc2n1 | > 10 | > 10 µM | > 10 µM | > 10 |  |  | 1 µM
COc1ccc2c(O)cc(-c3ccccc3)nc2n1 |  |  | > 10 µM |  | 0.0016 µM |  | 
Cc1ccc2c(O)cc(-c3ccccc3F)nc2n1 | 43 | 0.47 µM | 4.6 µM | 418 | 0.011 µM | 10 | 
Oc1cc(-c2ccccc2)nc2nc(Oc3ccccc3)ccc12 |  |  | > 10 µM |  | 0.026 µM |  | 
CCOC(=O)N1CCN(c2cc(-c3ccccc3)nc3nc(C)ccc23)CC1 |  |  | > 10 µM |  | 1.2 µM |  | 
Cc1ccc2c(NN)cc(-c3ccccc3)nc2n1 |  |  | > 10 µM |  | 0.1 µM |  | 
Cc1ccc2c(N=[N+]=[N-])cc(-c3ccccc3)nc2n1 |  | > 10 µM | > 10 µM |  | > 10 µM |  | 
Nc1ccc2c(O)cc(-c3ccccc3)nc2n1 |  |  | > 10 µM |  | 0.0053 µM |  | 
COc1cc(-c2ccccc2)nc2nc(C)ccc12 |  |  | > 10 µM |  | 6 µM |  | 
Cc1ccc2c(N(C)C)cc(-c3ccccc3)nc2n1 |  |  | > 10 µM |  | 0.55 µM |  | 
Cc1ccc2ccc(-c3ccccc3)nc2n1 |  |  | > 10 µM |  | 6.9 µM |  | 
